Experimental data as given in the supplement of paper PMC12350171.

What was measured:
[1] = tested on: Bacteroides fragilis NT; assay: IC25 growth inhibition; higher = less potent
In short: (§1)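 Under anaerobic conditions, OD578 was read hourly in a plate reader for at least three biological replicates of monocultures grown overnight in mGAM. Each culture started at an OD578 of 0.01 in pre-reduced plates holding twofold drug dilutions and 1% DMSO (or water). IC25 was reported as a tested interval: the lowest concentration where the monotonic median area under the growth curve dropped below the cutoff. That cutoff was 0.75.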

[2] = tested on: Bacteroides thetaiotaomicron; assay: IC25 growth inhibition; higher = less potent
In short: as §1

[3] = tested on: Bacteroides uniformis; assay: IC25 growth inhibition; higher = less potent
In short: as §1

[4] = tested on: Bacteroides vulgatus; assay: IC25 growth inhibition; higher = less potent
In short: as §1

[5] = tested on: Clostridium bolteae; assay: IC25 growth inhibition; higher = less potent
In short: as §1

[6] = tested on: Clostridium perfringens; assay: IC25 growth inhibition; higher = less potent
In short: as §1

[7] = tested on: Clostridium ramosum; assay: IC25 growth inhibition; higher = less potent
In short: as §1

[8] = tested on: Clostridium saccharolyticum; assay: IC25 growth inhibition; higher = less potent
In short: as §1

[9] = tested on: Collinsella aerofaciens; assay: IC25 growth inhibition; higher = less potent
In short: as §1

[10] = tested on: Coprococcus comes; assay: IC25 growth inhibition; higher = less potent
In short: as §1

[11] = tested on: Dorea formicigenerans; assay: IC25 growth inhibition; higher = less potent
In short: as §1

[12] = tested on: Escherichia coli ED1a; assay: IC25 growth inhibition; higher = less potent
In short: as §1

[13] = tested on: Eubacterium rectale; assay: IC25 growth inhibition; higher = less potent
In short: as §1

[14] = tested on: Fusobacterium nucleatum subsp. Nucleatum; assay: IC25 growth inhibition; higher = less potent
In short: as §1

[15] = tested on: Parabacteroides merdae; assay: IC25 growth inhibition; higher = less potent
In short: as §1

[16] = tested on: Roseburia intestinalis; assay: IC25 growth inhibition; higher = less potent
In short: as §1

[17] = tested on: Ruminococcus gnavus; assay: IC25 growth inhibition; higher = less potent
In short: as §1

[18] = tested on: Salmonella enterica typhimurium; assay: IC25 growth inhibition; higher = less potent
In short: as §1

[19] = tested on: Shigella flexneri; assay: IC25 growth inhibition; higher = less potent
In short: as §1

[20] = tested on: Streptococcus parasanguinis; assay: IC25 growth inhibition; higher = less potent
In short: as §1

[21] = tested on: Streptococcus salivarius; assay: IC25 growth inhibition; higher = less potent
In short: as §1

[22] = tested on: Vibrio cholerae; assay: IC25 growth inhibition; higher = less potent
In short: as §1

[23] = tested on: Yersinia enterocolitica WA-314; assay: IC25 growth inhibition; higher = less potent
In short: as §1

[24] = tested on: Yersinia pseudotuberculosis; assay: IC25 growth inhibition; higher = less potent
In short: as §1

[25] = tested on: Com21 synthetic gut community; assay: community biomass OD578 after 24 h drug treatment relative to untreated (fraction of untreated control); higher = more community growth; settings: community: Com21 (Com20 + E. coli ED1a)
Procedure: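 Com21 (Com20 plus E. coli ED1a) was treated with drug for 24 h under anaerobic conditions in mGAM. Community OD578 was then measured and normalised to untreated Com21; mean of 3 biological replicates.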

[26] = drug pretreatment concentration 20 µM
[27] = drug pretreatment concentration 40 µM
[28] = drug pretreatment concentration 80 µM
[29] = drug pretreatment concentration 160 µM
[30] = drug pretreatment concentration 10 µM
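For IC25 growth inhibition in this document: lowest concentration where monotonic median growth AUC falls below 0.75 of drug-free control.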

| Compound | IC25 growth inhibition [1] [µM] | IC25 growth inhibition [2] [µM] | IC25 growth inhibition [3] [µM] | IC25 growth inhibition [4] [µM] | IC25 growth inhibition [5] [µM] | IC25 growth inhibition [6] [µM] | IC25 growth inhibition [7] [µM] | IC25 growth inhibition [8] [µM] | IC25 growth inhibition [9] [µM] | IC25 growth inhibition [10] [µM] | IC25 growth inhibition [11] [µM] | IC25 growth inhibition [12] [µM] | IC25 growth inhibition [13] [µM] | IC25 growth inhibition [14] [µM] | IC25 growth inhibition [15] [µM] | IC25 growth inhibition [16] [µM] | IC25 growth inhibition [17] [µM] | IC25 growth inhibition [18] [µM] | IC25 growth inhibition [19] [µM] | IC25 growth inhibition [20] [µM] | IC25 growth inhibition [21] [µM] | IC25 growth inhibition [22] [µM] | IC25 growth inhibition [23] [µM] | IC25 growth inhibition [24] [µM] | community biomass OD578 [25, 26] | community biomass OD578 [25, 27] | community biomass OD578 [25, 28] | community biomass OD578 [25, 29] | community biomass OD578 [25, 30] | community biomass OD578 ([25]; drug pretreatment concentration 2.5 µM) | community biomass OD578 ([25]; drug pretreatment concentration 5 µM) |
| --- | --- | --- | --- | --- | --- | --- | --- | --- | --- | --- | --- | --- | --- | --- | --- | --- | --- | --- | --- | --- | --- | --- | --- | --- | --- | --- | --- | --- | --- | --- | --- |
| CCC(C)(C)C(=O)O[C@H]1C[C@@H](C)C=C2C=C[C@H](C)[C@H](CC[C@@H]3C[C@@H](O)CC(=O)O3)[C@H]21 [Simvastatin] | ≤ 40 | ≤ 40 | ≤ 40 | ≤ 20 | > 80 | ≤ 40 | ≤ 40 | ≤ 80 | ≤ 80 | > 80 | ≤ 80 | > 160 | ≤ 20 | > 80 | ≤ 40 | ≤ 20 | ≤ 40 | > 80 | > 80 | ≤ 80 | ≤ 20 | > 80 | > 80 | > 80 | 0.99 | 0.946 | 0.844 | 0.687 |  |  |  |
| CN(N=O)C(=O)N[C@@H](C=O)[C@@H](O)[C@H](O)[C@H](O)CO [Streptozotocin] | ≤ 20 | ≤ 40 | ≤ 40 | ≤ 20 | ≤ 2.5 | > 160 | < 1.25 | < 1.25 | ≤ 10 | ≤ 2.5 | > 160 | ≤ 2.5 | > 160 | < 1.25 | ≤ 20 | < 1.25 | < 1.25 | ≤ 10 | ≤ 2.5 | ≤ 20 | > 160 | ≤ 2.5 | ≤ 2.5 | ≤ 2.5 | 0.921 | 0.872 | 0.859 | 0.889 | 0.909 |  |  |
| CC/C(=C(\c1ccccc1)c1ccc(OCCN(C)C)cc1)c1ccccc1 [Tamoxifen] | > 40 | ≤ 40 | ≤ 40 | > 40 | > 40 | > 40 | > 40 | > 40 | ≤ 40 | > 40 | ≤ 20 | > 40 | ≤ 5 | > 40 | > 40 | ≤ 20 | ≤ 40 | > 40 | > 40 | > 40 | > 40 | > 40 | > 40 | > 40 | 0.977 | 0.719 |  |  | 1 | 1 | 1.01 |
| C[C@]1(Cn2ccnn2)[C@H](C(=O)O)N2C(=O)C[C@H]2S1(=O)=O [Tazobactam] | ≤ 10 | ≤ 20 | ≤ 5 | ≤ 10 | > 160 | ≤ 80 | > 160 | ≤ 80 | ≤ 160 | ≤ 80 | ≤ 20 | ≤ 160 | ≤ 5 | ≤ 20 | ≤ 10 | ≤ 40 | ≤ 160 | ≤ 160 | ≤ 160 | ≤ 40 | ≤ 160 | > 160 | > 160 | > 160 | 0.79 | 0.716 | 0.733 | 0.722 | 0.834 |  |  |
